The values that follow come from ChEMBL document CHEMBL1141730, “Destruxin-A4 chlorohydrin, a novel destruxin from fungus OS-F68576: isolation, structure determination, and biological activity as an inducer of erythropoietin” (1998).

Starred links: 1 amine or outer side, 2 acyl side, 3 side chain; linkers in the order of their positions; H or OH if unused. Non-standard residues stand in square brackets, D forms with d. Residues, ends and D or L forms follow the SMILES beside them. Pentanoyl(2-O,4-OH,5-Cl) = O=C(O)C(O)CC(O)CCl; dLac(3-vinyl) = C=CC[C@@H](O)C(=O)O; NMeI = CC[C@H](C)[C@H](NC)C(=O)O; X1 = C=CC[C@H](O[*:1])C(=O)[*:2]; Hica(2S) = CC(C)C[C@H](O)C(=O)O; dHica = CC(C)C[C@@H](O)C(=O)O; NMeV = CN[C@H](C(=O)O)C(C)C; NMeA = CN[C@@H](C)C(=O)O; βAla = NCCC(=O)O

In assay [1] the test system is Hep 3B2. As to the kind of experiment: Induction of erythropoietin gene expression in human Hep3B cells over expressing human EPO assessed as maximal transcription induction ratio at 20 uM by luciferase reporter gene assay. The assay is classed as functional. In general terms: In a reporter assay the amount or activity of a reporter protein is the signal.
The subject of assay [2] is Hep 3B2. In words: Induction of erythropoietin gene expression in human Hep3B cells over expressing human EPO assessed as maximal transcription induction ratio at 1.3 uM by luciferase reporter gene assay. Type of assay: functional.
Assay [3] concerns Hep 3B2. In words: Induction of erythropoietin gene expression in human Hep3B cells over expressing human EPO assessed as drug level required to produce 5 fold transcription induction ratio. Type of assay: functional.
The test system of assay [4] is Hep 3B2. As to the kind of experiment: Induction of erythropoietin secretion in human Hep3B cells expressing human EPO at 10 uM by ELISA. The assay is classed as functional. (In an ELISA, binding on a coated surface is turned into a signal by an enzyme label.)
The subject of assay [5] is Hep 3B2. In words: Cytotoxicity against human Hep3B cells at =< 20 uM. Type of assay: functional, cell-based.
Assay [6] has as its system Hep 3B2. In words: Induction of erythropoietin gene expression in human Hep3B cells over expressing human EPO assessed as maximal transcription induction ratio at 10 uM by luciferase reporter gene assay. The assay is classed as functional.
The test system of assay [7] is Hep 3B2. As to the kind of experiment: Induction of erythropoietin gene expression in human Hep3B cells over expressing human EPO assessed as maximal transcription induction ratio at 2.1 uM by luciferase reporter gene assay. Type of assay: functional.
For assay [8], the system named is Hep 3B2. In words: Induction of erythropoietin gene expression in human Hep3B cells over expressing human EPO assessed as maximal transcription induction ratio at 5 uM by luciferase reporter gene assay. Type of assay: functional.

As for `CC[C@H](C)[C@H](NC(=O)[C@@H]1CCCN1C(O)CC(O)CCl)C(=O)N(C)[C@H](C(=O)N(C)[C@@H](C)C(=O)NCCC(=O)O)[C@@H](C)CC` (stereo partly specified), the Ratio in the assay on Hep 3B2 [1] is 1.

`CC[C@H](C)[C@@H]1NC(=O)[C@@H]2CCCN2C(=O)C(CC(O)CCl)OC(=O)CCNC(=O)[C@H](C)N(C)C(=O)[C@H]([C@@H](C)CC)N(C)C1=O` (stereo partly specified) (cyclo(I[NMeI][NMeA][βAla][Pentanoyl(2-O,4-OH,5-Cl)]P)): in the assay on Hep 3B2 [2], the Ratio was 28. Moreover, the figures for the Activity in the assay on Hep 3B2 [3], in the assay with Hep 3B2 [4] and in the assay on Hep 3B2 [5] were 0.2 µM, 36 mU/ml and “Not toxic”, respectively.

As to `CC[C@H](C)[C@@H]1NC(=O)[C@@H]2CCCN2C(=O)[C@@H](CC(C)C)OC(=O)CCNC(=O)[C@H](C)N(C)C(=O)[C@H](C(C)C)N(C)C1=O` (cyclo(I[NMeV][NMeA][βAla][dHica]P)), the Ratio with Hep 3B2 [6] is given as 19. Further, the figures for the Activity in the assay on Hep 3B2 [3], in the assay with Hep 3B2 [4] and in the assay with Hep 3B2 [5] were 2 µM, 35 mU/ml and “Not toxic”, respectively.

For `C=CC[C@H]1OC(=O)CCNC(=O)[C@H](C)N(C)C(=O)[C@H](C(C)C)N(C)C(=O)[C@H]([C@@H](C)CC)NC(=O)[C@@H]2CCCN2C1=O` (cyclo(I[NMeV][NMeA][βAla][dLac(3-vinyl)]P)), in the assay with Hep 3B2 [7], the Ratio worked out at 28. The Activity is 0.4 µM in the assay on Hep 3B2 [3], 37 mU/ml in the assay on Hep 3B2 [4] and “Not toxic” with Hep 3B2 [5].

Regarding `C=CC[C@@H]1OC(=O)CCNC(=O)[C@H](C)N(C)C(=O)[C@H]([C@@H](C)CC)N(C)C(=O)[C@H]([C@@H](C)CC)NC(=O)[C@@H]2CCCN2C1=O` [destruxin A4] (cyclo(I[NMeI][NMeA][βAla][X1]P)), the Ratio in the assay with Hep 3B2 [8] is on record as 23. Besides, the Activity with Hep 3B2 [3] is 0.9 µM; in the assay with Hep 3B2 [4], 35 mU/ml; in the assay with Hep 3B2 [5] it was “Not toxic”.

Consider `CC[C@H](C)[C@@H]1NC(=O)[C@@H]2CCCN2C(=O)[C@H](CC(C)C)OC(=O)CCNC(=O)[C@H](C)N(C)C(=O)[C@H]([C@@H](C)CC)N(C)C1=O` [homodestruxin B] (cyclo([Hica(2S)]PI[NMeI][NMeA][βAla])), for which the Ratio in the assay with Hep 3B2 [8] is 18. In addition, the Activity was 0.8 µM with Hep 3B2 [3], 36 mU/ml with Hep 3B2 [4] and “Not toxic” in the assay on Hep 3B2 [5].
